# According to patent US10071086B2, “1H-pyrazolo[3,4-b]pyridines and therapeutic uses thereof” (Samumed, LLC, priority 2012, dated 2018):
# pIC50: −log10 of the molar value.
# Test system: Wnt pathway
# Assay: Wnt activity reporter assay (SP5 promoter-luciferase in SW480 cells)
# Format: cell-based
# Settings: Homo sapiens, SP5 promoter firefly luciferase reporter, read-out: Wnt inhibition
# Description: The above synthesized compounds were screened using the assay procedure for Wnt activity described below.
# Reporter cell lines can be generated by stably transducing cells of cancer cell lines (e.g., colon cancer) with a lentiviral construct that include a wnt-responsive promoter driving expression of the firefly luciferase gene.
# Lentiviral constructs can be made in which the SP5 promoter, a promoter having eight TCF/LEF binding sites derived from the SP5 promoter, is linked upstream of the firefly luciferase gene. The lentiviral constructs can also include a hygromycin resistance gene as a selectable marker. The SP5 promoter construct can be used to transduce SW480 cells, a colon cancer cell line having a mutated APC gene that generates a truncated APC protein, leading to de-regulated accumulation of β-catenin.
# Cultured SW480 cells bearing a reporter construct can be distributed at approximately 10,000 cells per well into 96 well or 384 well plates. Compounds from a small molecule compound library can then be added to the wells in half-log dilutions using a ten micromolar top concentration. A series of control wells for each cell type receive only buffer and compound solvent. Twenty-four to forty hours after the addition of compound, reporter activity for luciferase can be assayed, for example, by addition of the BrightGlo luminescence reagent (Promega) and the Victor3 plate reader (Perkin Elmer). Readings can be normalized to DMSO only treated cells, and normalized activities can then be used in the IC50 calculations.
row,SMILES,pIC50
1,"Fc1cncc(-c2cncc3[nH]c(-c4n[nH]c5ncc(-c6cccnc6)cc45)nc23)c1 [Compound 23, 3-(7-(5-Fluoropyridin-3-yl)-3H-imidazo[4,5-c]pyridin-2-yl)-5-(pyridin-3-yl)-1H-pyrazolo[3,4-b]pyridine]",5.00
2,"CN(C)Cc1cncc(-c2cnc3[nH]nc(-c4nc5c(-c6cc(F)cc(N7CCOCC7)c6)cncc5[nH]4)c3c2)c1 [Compound 24, 1-(5-(3-(7-(3-Fluoro-5-morpholinophenyl)-3H-imidazo[4,5-c]pyridin-2-yl)-1H-pyrazolo[3,4-b]pyridin-5-yl)pyridin-3-yl)-N,N-dimethylmethanamine]",7.68
3,"CN(C)Cc1cncc(-c2cnc3[nH]nc(-c4nc5c(-c6cncc(C(F)(F)F)c6)cncc5[nH]4)c3c2)c1 [Compound 25, N,N-Dimethyl-1-(5-(3-(7-(5-(trifluoromethyl)pyridin-3-yl)-3H-imidazo[4,5-c]pyridin-2-yl)-1H-pyrazolo[3,4-b]pyridin-5-yl)pyridin-3-yl)methanamine]",5.00
4,"Fc1cccc(-c2cncc3[nH]c(-c4n[nH]c5ncc(-c6cncc(CN7CCCC7)c6)cc45)nc23)c1 [Compound 27, 3-(7-(3-Fluorophenyl)-3H-imidazo[4,5-c]pyridin-2-yl)-5-(5-(pyrrolidin-1-ylmethyl)pyridin-3-yl)-1H-pyrazolo[3,4-b]pyridine]",5.75
5,"Fc1cccc(-c2cncc3[nH]c(-c4n[nH]c5ncc(-c6cncc(CN7CCCCC7)c6)cc45)nc23)c1 [Compound 28, 3-(7-(3-Fluorophenyl)-3H-imidazo[4,5-c]pyridin-2-yl)-5-(5-(piperidin-1-ylmethyl)pyridin-3-yl)-1H-pyrazolo[3,4-b]pyridine]",6.14
6,"O=C(Nc1cncc(-c2cnc3[nH]nc(-c4nc5c(-c6cccc(F)c6)cncc5[nH]4)c3c2)c1)C1CC1 [Compound 114, N-(5-(3-(7-(3-Fluorophenyl)-3H-imidazo[4,5-c]pyridin-2-yl)-1H-pyrazolo[3,4-b]pyridin-5-yl)pyridin-3-yl)cyclopropanecarboxamide]",7.96
7,"O=C(Cc1ccccc1)Nc1cncc(-c2cnc3[nH]nc(-c4nc5c(-c6ccc(F)cc6)cncc5[nH]4)c3c2)c1 [Compound 128, N-(5-(3-(7-(4-Fluorophenyl)-3H-imidazo[4,5-c]pyridin-2-yl)-1H-pyrazolo[3,4-b]pyridin-5-yl)pyridin-3-yl)-2-phenylacetamide]",7.05
8,"Fc1ccc(-c2cncc3[nH]c(-c4n[nH]c5ncc(-c6cncc(CNCC7CCCC7)c6)cc45)nc23)cc1 [Compound 142, 1-Cyclopentyl-N-((5-(3-(7-(4-fluorophenyl)-3H-imidazo[4,5-c]pyridin-2-yl)-1H-pyrazolo[3,4-b]pyridin-5-yl)pyridin-3-yl)methyl)methanamine]",6.19
9,"CCCC(=O)Nc1cncc(-c2cnc3[nH]nc(-c4nc5c(-c6ccccc6F)cncc5[nH]4)c3c2)c1 [Compound 158, N-(5-(3-(7-(2-Fluorophenyl)-3H-imidazo[4,5-c]pyridin-2-yl)-1H-pyrazolo[3,4-b]pyridin-5-yl)pyridin-3-yl)butyramide]",8.10
10,"CN(C)Cc1cncc(-c2cnc3[nH]nc(-c4nc5c(-c6cccnc6)cncc5[nH]4)c3c2)c1 [Compound 176, N,N-Dimethyl-1-(5-(3-(7-(pyridin-3-yl)-3H-imidazo[4,5-c]pyridin-2-yl)-1H-pyrazolo[3,4-b]pyridin-5-yl)pyridin-3-yl)methanamine]",5.81
11,"c1cncc(-c2cncc3[nH]c(-c4n[nH]c5ncc(-c6cncc(CN7CCCCC7)c6)cc45)nc23)c1 [Compound 178, 5-(5-(Piperidin-1-ylmethyl)pyridin-3-yl)-3-(7-(pyridin-3-yl)-3H-imidazo[4,5-c]pyridin-2-yl)-1H-pyrazolo[3,4-b]pyridine]",6.41
12,"CC(C)(C)CC(=O)Nc1cncc(-c2cnc3[nH]nc(-c4nc5c(-c6cccnc6)cncc5[nH]4)c3c2)c1 [Compound 179, 3,3-Dimethyl-N-(5-(3-(7-(pyridin-3-yl)-3H-imidazo[4,5-c]pyridin-2-yl)-1H-pyrazolo[3,4-b]pyridin-5-yl)pyridin-3-yl)butanamide]",5.84
13,"O=C(Nc1cncc(-c2cnc3[nH]nc(-c4nc5c(-c6cccnc6)cncc5[nH]4)c3c2)c1)C1CCCCC1 [Compound 185, N-(5-(3-(7-(Pyridin-3-yl)-3H-imidazo[4,5-c]pyridin-2-yl)-1H-pyrazolo[3,4-b]pyridin-5-yl)pyridin-3-yl)cyclohexanecarboxamide]",5.88
14,"Cc1ccncc1-c1cnc2[nH]nc(-c3nc4c(-c5ccncc5)cncc4[nH]3)c2c1 [Compound 192, 5-(4-Methylpyridin-3-yl)-3-(7-(pyridin-4-yl)-3H-imidazo[4,5-c]pyridin-2-yl)-1H-pyrazolo[3,4-b]pyridine]",5.98
15,"CC(C)Nc1cncc(-c2cnc3[nH]nc(-c4nc5c(-c6ccncc6)cncc5[nH]4)c3c2)c1 [Compound 198, N-Isopropyl-5-(3-(7-(pyridin-4-yl)-3H-imidazo[4,5-c]pyridin-2-yl)-1H-pyrazolo[3,4-b]pyridin-5-yl)pyridin-3-amine]",5.95
16,"c1ccc(CNCc2cncc(-c3cnc4[nH]nc(-c5nc6c(-c7ccncc7)cncc6[nH]5)c4c3)c2)cc1 [Compound 209, N-Benzyl-1-(5-(3-(7-(pyridin-4-yl)-3H-imidazo[4,5-c]pyridin-2-yl)-1H-pyrazolo[3,4-b]pyridin-5-yl)pyridin-3-yl)methanamine]",5.01
17,"O=C(Nc1cncc(-c2cnc3[nH]nc(-c4nc5c(-c6ccccn6)cncc5[nH]4)c3c2)c1)C1CCC1 [Compound 229, N-(5-(3-(7-(Pyridin-2-yl)-3H-imidazo[4,5-c]pyridin-2-yl)-1H-pyrazolo[3,4-b]pyridin-5-yl)pyridin-3-yl)cyclobutanecarboxamide]",7.92
18,"Nc1cncc(-c2cnc3[nH]nc(-c4nc5c(N6CCCCC6)cncc5[nH]4)c3c2)c1 [Compound 238, 5-(3-(7-(Piperidin-1-yl)-3H-imidazo[4,5-c]pyridin-2-yl)-1H-pyrazolo[3,4-b]pyridin-5-yl)pyridin-3-amine]",6.46
19,"CCNCc1cncc(-c2cnc3[nH]nc(-c4nc5c(N6CCCCC6)cncc5[nH]4)c3c2)c1 [Compound 241, N-((5-(3-(7-(Piperidin-1-yl)-3H-imidazo[4,5-c]pyridin-2-yl)-1H-pyrazolo[3,4-b]pyridin-5-yl)pyridin-3-yl)methyl)ethanamine]",6.72
20,"O=C(Nc1cncc(-c2cnc3[nH]nc(-c4nc5c(N6CCCCC6)cncc5[nH]4)c3c2)c1)c1ccccc1 [Compound 246, N-(5-(3-(7-(Piperidin-1-yl)-3H-imidazo[4,5-c]pyridin-2-yl)-1H-pyrazolo[3,4-b]pyridin-5-yl)pyridin-3-yl)benzamide]",5.90
21,"c1ncc(-c2cnc3[nH]nc(-c4nc5c(N6CCCCC6)cncc5[nH]4)c3c2)cc1CN1CCCC1 [Compound 249, 3-(7-(Piperidin-1-yl)-3H-imidazo[4,5-c]pyridin-2-yl)-5-(5-(pyrrolidin-1-ylmethyl)pyridin-3-yl)-1H-pyrazolo[3,4-b]pyridine]",5.00
22,"O=C(Nc1cncc(-c2cnc3[nH]nc(-c4nc5c(N6CCCCC6)cncc5[nH]4)c3c2)c1)C1CC1 [Compound 254, N-(5-(3-(7-(Piperidin-1-yl)-3H-imidazo[4,5-c]pyridin-2-yl)-1H-pyrazolo[3,4-b]pyridin-5-yl)pyridin-3-yl)cyclopropanecarboxamide]",6.63
23,"CCCCC(=O)Nc1cncc(-c2cnc3[nH]nc(-c4nc5c(N6CCN(C)CC6)cncc5[nH]4)c3c2)c1 [Compound 305, N-(5-(3-(7-(4-Methylpiperazin-1-yl)-3H-imidazo[4,5-c]pyridin-2-yl)-1H-pyrazolo[3,4-b]pyridin-5-yl)pyridin-3-yl)pentanamide]",5.13
24,"CN1CCN(c2cncc3[nH]c(-c4n[nH]c5ncc(-c6cncc(NC(=O)C7CCCCC7)c6)cc45)nc23)CC1 [Compound 309, N-(5-(3-(7-(4-Methylpiperazin-1-yl)-3H-imidazo[4,5-c]pyridin-2-yl)-1H-pyrazolo[3,4-b]pyridin-5-yl)pyridin-3-yl)cyclohexanecarboxamide]",5.99
25,"CC(C)Nc1cncc(-c2cnc3[nH]nc(-c4nc5ccncc5[nH]4)c3c2)c1 [Compound 325, 5-(3-(3H-Imidazo[4,5-c]pyridin-2-yl)-1H-pyrazolo[3,4-b]pyridin-5-yl)-N-isopropylpyridin-3-amine]",7.24
26,"c1ccc(CNCc2cncc(-c3cnc4[nH]nc(-c5nc6ccncc6[nH]5)c4c3)c2)cc1 [Compound 336, 1-(5-(3-(3H-Imidazo[4,5-c]pyridin-2-yl)-1H-pyrazolo[3,4-b]pyridin-5-yl)pyridin-3-yl)-N-benzylmethanamine]",6.10
27,"CN(C)c1cncc(-c2cnc3[nH]nc(-c4nc5c(-c6ccsc6)cncc5[nH]4)c3c2)c1 [Compound 346, N,N-Dimethyl-5-(3-(7-(thiophen-3-yl)-3H-imidazo[4,5-c]pyridin-2-yl)-1H-pyrazolo[3,4-b]pyridin-5-yl)pyridin-3-amine]",7.25
28,"CN(C)Cc1cncc(-c2cnc3[nH]nc(-c4nc5c(-c6ccsc6)cncc5[nH]4)c3c2)c1 [Compound 352, N,N-Dimethyl-1-(5-(3-(7-(thiophen-3-yl)-3H-imidazo[4,5-c]pyridin-2-yl)-1H-pyrazolo[3,4-b]pyridin-5-yl)pyridin-3-yl)methanamine]",7.24
